# According to patent publication US20260207535A1, “CRIBLAGE INHIBITEURS USP8” (COMMISSARIAT A L'ENERGIE ATOMIQUE ET AUX ENERGIES …, priority 2022, published 2026):
# Read-outs that look alike come from different tables or passages of the source.
# What was measured:
# AtT-20 pituitary cells = test: Inhibition of ACTH secretion in pituitary cells (ACTH EIA on supernatant); format: cell-based, mouse
# Protocol: ACTH release (percent comparison to DMSO control). Briefly, 12,500 AtT-20 cells per well were seeded in a 96-well plate. After 24 hours exposure, cells were treated with each compound at the indicated final concentration, or with DMSO alone (control condition compound solvent) or with corticotropin releasing factor (indicated CRF) at 100 nM. After a 24-hour treatment, cell supernatants were collected and stored at −80° C., prior to quantification of ACTH concentration using ACTH chemiluminescent EIA kit (Phoenix Pharmaceuticals, Inc.). Determination of ACTH concentrations was based on the best-fitting ACTH standard curve and P values were calculated using one-way ANOVA, using Prism 9 software (GraphPad Software, Inc.) ns (P=0.12). **P<0.002. ***P<0.001. All compounds were tested in technical triplicates. One representative experiment out of three is presented.
# FIG. 4: illustrates a decrease of ACTH secretion by AtT-20 cells after 24-hour treatment of halogenated salicylanilides. 12,500 AtT-20 cells per well were seeded in a 96-well plate. […] After a 24-hour treatment, cell supernatants were collected and stored at −80° C., prior to quantification of ACTH concentration using ACTH chemiluminescent EIA kit (Phoenix Pharmaceuticals, Inc.). Determination of ACTH concentrations was based on the best-fitting ACTH standard curve and P values were calculated by ordinary one-way ANOVA using Prism 6 software (GraphPad Software, Inc), ns (not significant), **** P<0.0001. Compounds were tested in technical triplicates.
# 12,500 AtT-20 cells per well were seeded in a 96-well plate. After 24 hours, cells were treated with compounds (corresponding chemical formula are indicated in Table 1) at 25 μM final concentration, or with DMSO alone (compound solvent). After a 24-hour treatment, cell supernatants were collected and stored at −80° C., prior to quantification of ACTH concentration using ACTH chemiluminescent EIA kit (Phoenix Pharmaceuticals, Inc.). Determination of ACTH concentrations was based on the best-fitting ACTH standard curve and P values were calculated by ordinary one-way ANOVA using Prism 6 software (GraphPad Software, Inc), ns (not significant), *P<0.05, ***P<0,0001. Compounds were tested in technical triplicates.
# Mouse AtT-20 pituitary cell line were used as a powerful and well-characterized model to monitor ACTH secretion using an enzyme immunoassay (EIA) kit.
# Mouse AtT-20 cells were obtained from the American Type Culture Collection and maintained on DMEM containing 10% fetal bovine serum, 100 μg/mL streptomycin and 100 U/mL penicillin at 37° C. with 5% CO2 after recovery from long-term storage on liquid nitrogen-vapor phase.
# The ACTH secretion levels of AtT-20 cell culture was monitored on the supernatant of AtT-20 cells treated or not by increasing doses of compounds belonging to the family of halogenated salicylanilides chemicals.
# 1.25×10^4 AtT20 cells were seeded on polylysine-coated 96-well culture vessels on 150 μL of complete medium. After 24 hours, cells were treated with stock compounds to a final DMSO concentration of 0.5%. After 24 hours of treatment, cell culture supernatant was collected, cleared for 10 min at 1000×g at 4° C., diluted or not in assay buffer (Phoenix Peptide ACTH EIA EK-001-21) and frozen at −80° C. for subsequent processing according to the instructions of the kit's manufacturer.
# AtT-20 cells = test: Cytotoxicity towards AtT-20 cells (PrestoBlue viability assay); conditions: 25 μM, 24-hour exposure
# [1] = biological target: T1, Full length USP8 (USP8FL) (Homo sapiens, UniProt P40818); test: USP8FL (full length USP8) enzymatic inhibition, Ub-Rhodamine 110 hydrolysis in L-cysteine buffer; format: biochemical; conditions: USP8 FL 75 nM, Ub-Rho 0.1 μM, L-cysteine buffer
# T1 construct: purchased BostonBiochem E-520
# T1 sequence (P40818 1-1118): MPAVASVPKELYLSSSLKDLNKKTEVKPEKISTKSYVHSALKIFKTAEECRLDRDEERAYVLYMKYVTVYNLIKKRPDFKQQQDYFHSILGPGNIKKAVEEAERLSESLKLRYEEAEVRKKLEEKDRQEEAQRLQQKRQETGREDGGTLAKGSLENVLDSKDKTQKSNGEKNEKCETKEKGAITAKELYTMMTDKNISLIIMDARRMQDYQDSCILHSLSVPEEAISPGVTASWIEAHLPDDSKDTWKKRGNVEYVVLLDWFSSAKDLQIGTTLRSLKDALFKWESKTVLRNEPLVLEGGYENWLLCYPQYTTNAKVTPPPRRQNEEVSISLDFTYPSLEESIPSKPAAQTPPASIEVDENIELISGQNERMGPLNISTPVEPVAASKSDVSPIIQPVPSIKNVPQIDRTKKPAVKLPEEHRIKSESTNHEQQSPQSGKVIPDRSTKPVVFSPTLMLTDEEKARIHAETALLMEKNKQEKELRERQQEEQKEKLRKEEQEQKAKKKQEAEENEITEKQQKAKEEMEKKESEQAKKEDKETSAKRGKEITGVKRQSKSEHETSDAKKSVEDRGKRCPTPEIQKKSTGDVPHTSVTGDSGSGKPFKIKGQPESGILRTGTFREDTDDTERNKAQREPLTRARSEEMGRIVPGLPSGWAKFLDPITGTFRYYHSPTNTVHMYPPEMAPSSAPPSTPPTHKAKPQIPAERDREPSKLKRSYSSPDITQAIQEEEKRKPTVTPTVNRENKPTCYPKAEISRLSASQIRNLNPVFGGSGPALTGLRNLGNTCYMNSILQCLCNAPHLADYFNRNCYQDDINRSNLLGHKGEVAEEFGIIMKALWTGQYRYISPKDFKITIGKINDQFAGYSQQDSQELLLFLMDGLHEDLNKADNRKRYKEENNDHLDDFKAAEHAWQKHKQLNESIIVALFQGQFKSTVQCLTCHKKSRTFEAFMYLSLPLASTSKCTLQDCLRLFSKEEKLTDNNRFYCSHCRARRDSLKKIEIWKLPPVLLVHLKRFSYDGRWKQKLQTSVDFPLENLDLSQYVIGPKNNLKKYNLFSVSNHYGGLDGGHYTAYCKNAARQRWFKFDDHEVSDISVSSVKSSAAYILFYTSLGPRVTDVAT
# Protocol: USP8 FL (USP8 Full Length) was incubated at a concentration of 75 nM in the presence of Ub-Rho (UBIQUIGENT ref. 60-0117-050) at a final concentration of 0.1 μM, in conditions ensuring linearity of enzyme activity throughout the assay in a specific buffer. Compounds were added to the reaction mix at different doses just before the substrate. The enzymatic reaction kinetics were monitored by measuring fluorescence elicited by the hydrolysis of Ub-Rho over 30 min.
# In this setup, an in-house purified catalytic domain of USP8 (USP8CD) was used at a concentration of 80 nM in the presence of the artificial substrate Ubiquitin-Rhodamine 110 (Ub-Rho) (ref: 60-0117-050 Ubiquigent) at a final concentration of 0.1 μM, in conditions ensuring linearity of enzyme activity throughout the assay incubation time. Enzymatic assay was performed in a Tris HCl buffer (40 mM Tris HCl pH 7.4, Ovalbumine 0.5 mg/ml, Cysteine HCl 5.5 mM). Compounds to be tested were added to the reaction mix and incubated with enzyme for 20 min, before the substrate. The enzymatic reaction kinetics were monitored by measuring fluorescence elicited by the hydrolysis of the peptidyl Ub-Rho over 30 minutes. The negative control was the solvent DMSO at 1%.
# Full length USP8 (USPBFL) (BostonBiochem ref. E-520) were used at a concentration of 75 nM in the presence of a ubiquitin substrate, i.e., the Ub-Rhodamine 110 (Ub-Rho) (Ubiquigent ref. 60-0117-050) at a final concentration of 0.1 μM. Enzymatic assays were performed as described for USP8-CD except that USP-FL was used at a concentration of 75 nM. The compounds were used at a final concentration of 0.1, 1, 5, 10, 50 and 100 μM in DMSO 0.5%. The USP8 catalytic activity was monitored both before adding the substrate (TO) and after twenty minutes of incubation at room temperature (Final Time TF). The enzymatic reaction kinetics were monitored by measuring fluorescence elicited by the hydrolysis of the Ub-Rho bound over 30 minutes.
Structure (SMILES),"inhibition of ACTH at 25 μM, in words (FIG. 4, FIG. 5) (AtT-20 pituitary cells; 25 μM, 24-hour treatment)","activity at 25 µM (AtT-20 pituitary cells; Mus musculus, AtT20, 25 μM, 24-hour treatment, AtT-20 supernatant, read-out: ACTH secretion % of control (DMSO) at 25 μM) [%]","inhibition at 25 µM (AtT-20 pituitary cells; Mus musculus, AtT20, 25 μM, 24-hour treatment, p<0.05) [%]",AtT-20 cell viability (PrestoBlue assay) % of control (DMSO) at 25 μM Mean (SD) (AtT-20 cells),IC50 ([1]; read-out: USP8FL inhbition IC50 [μM] (CI: Confidence Interval)) [µM],"activity at 25 µM (AtT-20 pituitary cells; Mus musculus, AtT20, 24 h, read-out: ACTH secretion % of control (DMSO) at 25 μM, 25 μM, 24-hour treatment, AtT-20 supernatant) [%]",IC50 ([1]; USP8FL inhbition IC50 [μM] (CI: Confidence Interval)) [µM]
O=C(NCc1cccc(OCc2ccccn2)c1)c1csc(Br)c1 [Z424433412],ineffective,80,20,98.93 (14.69) %,> 40,,
"O=C(Nc1ccccc1)c1ccccc1O [Salicylanilide, reference compound]",ineffective,,,105.4 (14.77) %,,99,> 40
